Test results from ChEMBL document CHEMBL5724806, “Unraveling interindividual differences and functional consequences of gut microbial metabolism of immunosuppressants” (2024).

Tests used:
Assay type in all cases: ADME
[1] = The drug is tested on Bifidobacterium adolescentis strain: DSM20083 for biotransformation under anaerobic condition. The drug concentrations were measured over 6 timepoints collected between 0 and 12 hours of incubation by liquid-chromatography-coupled mass spectrometry (LC–MS); design: dose 5 uM, timepoint 0, 1.5, 3, 6, 9, 12 hours; conditions: 5 µM
[2] = The drug is tested on Bacteroides vulgatus strain: DSM1447 for biotransformation under anaerobic condition. The drug concentrations were measured over 6 timepoints collected between 0 and 12 hours of incubation by liquid-chromatography-coupled mass spectrometry (LC–MS); design: dose 5 uM, timepoint 0, 1.5, 3, 6, 9, 12 hours; conditions: phocaeicola vulgatus, 5 µM
[3] = The drug is tested on the gut metagenome community of P-01 with ENA study accession number: PRJEB31790 for biotransformation under microaerobic condition. The drug concentrations were measured over 7 timepoints collected between 0 and 12 hours of incubation by liquid-chromatography-coupled mass spectrometry (LC–MS); design: dose 5 uM, timepoint 0, 0.75, 1.5, 3, 6, 9, 12 hours; conditions: 5 µM
[4] = The drug is tested on Lactobacillus paracasei strain: ATCC27092 for biotransformation under microaerobic condition. The drug concentrations were measured over 6 timepoints collected between 0 and 12 hours of incubation by liquid-chromatography-coupled mass spectrometry (LC–MS); design: dose 5 uM, timepoint 0, 1.5, 3, 6, 9, 12 hours; conditions: lacticaseibacillus paracasei, 5 µM
[5] = The drug is tested on the gut metagenome community of A-01 with ENA study accession number: PRJEB31790 for biotransformation under anaerobic condition. The drug concentrations were measured over 7 timepoints collected between 0 and 12 hours of incubation by liquid-chromatography-coupled mass spectrometry (LC–MS); design: dose 5 uM, timepoint 0, 0.75, 1.5, 3, 6, 9, 12 hours; conditions: 5 µM
[6] = The drug is tested on Actinomyces naeslundi strain: DSM43013 for biotransformation under anaerobic condition. The drug concentrations were measured over 6 timepoints collected between 0 and 12 hours of incubation by liquid-chromatography-coupled mass spectrometry (LC–MS); design: dose 5 uM, timepoint 0, 1.5, 3, 6, 9, 12 hours; conditions: actinomyces naeslundii, 5 µM
[7] = The drug is tested on the gut metagenome community of A-08 with ENA study accession number: PRJEB31790 for biotransformation under microaerobic condition. The drug concentrations were measured over 7 timepoints collected between 0 and 12 hours of incubation by liquid-chromatography-coupled mass spectrometry (LC–MS); design: dose 5 uM, timepoint 0, 0.75, 1.5, 3, 6, 9, 12 hours; conditions: 5 µM
[8] = The drug is tested on Eubacterium rectale strain: DSM17629 for biotransformation under anaerobic condition. The drug concentrations were measured over 6 timepoints collected between 0 and 12 hours of incubation by liquid-chromatography-coupled mass spectrometry (LC–MS); design: dose 5 uM, timepoint 0, 1.5, 3, 6, 9, 12 hours; conditions: agathobacter rectalis, 5 µM
[9] = The drug is tested on Streptococcus anginosus strain: DSM20563 for biotransformation under anaerobic condition. The drug concentrations were measured over 6 timepoints collected between 0 and 12 hours of incubation by liquid-chromatography-coupled mass spectrometry (LC–MS); design: dose 5 uM, timepoint 0, 1.5, 3, 6, 9, 12 hours; conditions: 5 µM
[10] = The drug is tested on the gut metagenome community of T-04 with ENA study accession number: PRJEB31790 for biotransformation under anaerobic condition. The drug concentrations were measured over 7 timepoints collected between 0 and 12 hours of incubation by liquid-chromatography-coupled mass spectrometry (LC–MS); design: dose 5 uM, timepoint 0, 0.75, 1.5, 3, 6, 9, 12 hours; conditions: 5 µM
[11] = The drug is tested on Alloscardovia omnicolens strain: DSM21503 for biotransformation under microaerobic condition. The drug concentrations were measured over 6 timepoints collected between 0 and 12 hours of incubation by liquid-chromatography-coupled mass spectrometry (LC–MS); design: dose 5 uM, timepoint 0, 1.5, 3, 6, 9, 12 hours; conditions: 5 µM
[12] = The drug is tested on the gut metagenome community of P-03 with ENA study accession number: PRJEB31790 for biotransformation under microaerobic condition. The drug concentrations were measured over 7 timepoints collected between 0 and 12 hours of incubation by liquid-chromatography-coupled mass spectrometry (LC–MS); design: dose 5 uM, timepoint 0, 0.75, 1.5, 3, 6, 9, 12 hours; conditions: 5 µM
[13] = The drug is tested on Collinsella aerofaciens strain: DSM3979 for biotransformation under anaerobic condition. The drug concentrations were measured over 6 timepoints collected between 0 and 12 hours of incubation by liquid-chromatography-coupled mass spectrometry (LC–MS); design: dose 5 uM, timepoint 0, 1.5, 3, 6, 9, 12 hours; conditions: 5 µM
[14] = The drug is tested on the gut metagenome community of A-05 with ENA study accession number: PRJEB31790 for biotransformation under microaerobic condition. The drug concentrations were measured over 7 timepoints collected between 0 and 12 hours of incubation by liquid-chromatography-coupled mass spectrometry (LC–MS); design: dose 5 uM, timepoint 0, 0.75, 1.5, 3, 6, 9, 12 hours; conditions: 5 µM
[15] = The drug is tested on the gut metagenome community of A-07 with ENA study accession number: PRJEB31790 for biotransformation under microaerobic condition. The drug concentrations were measured over 7 timepoints collected between 0 and 12 hours of incubation by liquid-chromatography-coupled mass spectrometry (LC–MS); design: dose 5 uM, timepoint 0, 0.75, 1.5, 3, 6, 9, 12 hours; conditions: 5 µM
[16] = The drug is tested on the gut metagenome community of A-02 with ENA study accession number: PRJEB31790 for biotransformation under microaerobic condition. The drug concentrations were measured over 7 timepoints collected between 0 and 12 hours of incubation by liquid-chromatography-coupled mass spectrometry (LC–MS); design: dose 5 uM, timepoint 0, 0.75, 1.5, 3, 6, 9, 12 hours; conditions: 5 µM
[17] = The drug is tested on the gut metagenome community of A-07 with ENA study accession number: PRJEB31790 for biotransformation under anaerobic condition. The drug concentrations were measured over 7 timepoints collected between 0 and 12 hours of incubation by liquid-chromatography-coupled mass spectrometry (LC–MS); design: dose 5 uM, timepoint 0, 0.75, 1.5, 3, 6, 9, 12 hours; conditions: 5 µM
[18] = The drug is tested on the gut metagenome community of A-08 with ENA study accession number: PRJEB31790 for biotransformation under anaerobic condition. The drug concentrations were measured over 7 timepoints collected between 0 and 12 hours of incubation by liquid-chromatography-coupled mass spectrometry (LC–MS); design: dose 5 uM, timepoint 0, 0.75, 1.5, 3, 6, 9, 12 hours; conditions: 5 µM
[19] = The drug is tested on the gut metagenome community of T-05 with ENA study accession number: PRJEB31790 for biotransformation under anaerobic condition. The drug concentrations were measured over 7 timepoints collected between 0 and 12 hours of incubation by liquid-chromatography-coupled mass spectrometry (LC–MS); design: dose 5 uM, timepoint 0, 0.75, 1.5, 3, 6, 9, 12 hours; conditions: 5 µM
[20] = The drug is tested on Actinomyces graevenitzii strain: DSM15540 for biotransformation under microaerobic condition. The drug concentrations were measured over 6 timepoints collected between 0 and 12 hours of incubation by liquid-chromatography-coupled mass spectrometry (LC–MS); design: dose 5 uM, timepoint 0, 1.5, 3, 6, 9, 12 hours; conditions: 5 µM
[21] = The drug is tested on Streptococcus sanguinis strain: DSM20567 for biotransformation under microaerobic condition. The drug concentrations were measured over 6 timepoints collected between 0 and 12 hours of incubation by liquid-chromatography-coupled mass spectrometry (LC–MS); design: dose 5 uM, timepoint 0, 1.5, 3, 6, 9, 12 hours; conditions: 5 µM
[22] = The drug is tested on Enterococcus faecalis strain: ATCC29212 for biotransformation under microaerobic condition. The drug concentrations were measured over 6 timepoints collected between 0 and 12 hours of incubation by liquid-chromatography-coupled mass spectrometry (LC–MS); design: dose 5 uM, timepoint 0, 1.5, 3, 6, 9, 12 hours; conditions: 5 µM
[23] = The drug is tested on Gemella morbillorum strain: DSM20572 for biotransformation under microaerobic condition. The drug concentrations were measured over 6 timepoints collected between 0 and 12 hours of incubation by liquid-chromatography-coupled mass spectrometry (LC–MS); design: dose 5 uM, timepoint 0, 1.5, 3, 6, 9, 12 hours; conditions: 5 µM
[24] = The drug is tested on the gut metagenome community of A-04 with ENA study accession number: PRJEB31790 for biotransformation under anaerobic condition. The drug concentrations were measured over 7 timepoints collected between 0 and 12 hours of incubation by liquid-chromatography-coupled mass spectrometry (LC–MS); design: dose 5 uM, timepoint 0, 0.75, 1.5, 3, 6, 9, 12 hours; conditions: 5 µM
[25] = The drug is tested on Lactobacillus reuteri strain: DSM20016 for biotransformation under anaerobic condition. The drug concentrations were measured over 6 timepoints collected between 0 and 12 hours of incubation by liquid-chromatography-coupled mass spectrometry (LC–MS); design: dose 5 uM, timepoint 0, 1.5, 3, 6, 9, 12 hours; conditions: limosilactobacillus reuteri, 5 µM

| Structure (SMILES) | Bacterial Biotransformation [1] | Bacterial Biotransformation [2] | Bacterial Biotransformation [3] | Bacterial Biotransformation [4] | Bacterial Biotransformation [5] | Bacterial Biotransformation [6] | Bacterial Biotransformation [7] | Bacterial Biotransformation [8] | Bacterial Biotransformation [9] | Bacterial Biotransformation [10] | Bacterial Biotransformation [11] | Bacterial Biotransformation [12] | Bacterial Biotransformation [13] | Bacterial Biotransformation [14] | Bacterial Biotransformation [15] | Bacterial Biotransformation [16] | Bacterial Biotransformation [17] | Bacterial Biotransformation [18] | Bacterial Biotransformation [19] | Bacterial Biotransformation [20] | also measured |
| --- | --- | --- | --- | --- | --- | --- | --- | --- | --- | --- | --- | --- | --- | --- | --- | --- | --- | --- | --- | --- | --- |
| COc1c(C)c2c(c(O)c1C/C=C(\C)CCC(=O)O)C(=O)OC2 [MYCOPHENOLIC ACID] | Compound NOT metabolized | Compound NOT metabolized | Compound NOT metabolized | Compound NOT metabolized | Compound NOT metabolized | Compound NOT metabolized | Compound NOT metabolized | Compound NOT metabolized | Compound NOT metabolized | Compound NOT metabolized | Compound NOT metabolized | Compound NOT metabolized | Compound NOT metabolized | Compound NOT metabolized | Compound NOT metabolized | Compound NOT metabolized | Compound NOT metabolized | Compound NOT metabolized | Compound metabolized | Compound NOT metabolized | Bacterial Biotransformation [21]: Compound NOT metabolized; Bacterial Biotransformation [22]: Compound NOT metabolized; Bacterial Biotransformation [23]: Compound NOT metabolized; Bacterial Biotransformation [24]: Compound NOT metabolized; Bacterial Biotransformation [25]: Compound NOT metabolized |
| C[C@]12C=CC(=O)C=C1CC[C@@H]1[C@@H]2[C@@H](O)C[C@@]2(C)[C@H]1CC[C@]2(O)C(=O)CO [PREDNISOLONE] | Compound NOT metabolized | Compound NOT metabolized | Compound metabolized | Compound NOT metabolized | Compound metabolized | Compound NOT metabolized | Compound metabolized | Compound NOT metabolized | Compound NOT metabolized | Compound NOT metabolized | Compound NOT metabolized | Compound metabolized | Compound NOT metabolized | Compound metabolized | Compound metabolized | Compound metabolized | Compound metabolized | Compound metabolized | Compound NOT metabolized | Compound NOT metabolized | Bacterial Biotransformation [21]: Compound NOT metabolized; Bacterial Biotransformation [22]: Compound NOT metabolized; Bacterial Biotransformation [23]: Compound NOT metabolized; Bacterial Biotransformation [24]: Compound metabolized; Bacterial Biotransformation [25]: Compound NOT metabolized |
| C[C@]12C=CC(=O)C=C1CC[C@@H]1[C@@H]2C(=O)C[C@@]2(C)[C@H]1CC[C@]2(O)C(=O)CO [PREDNISONE] | Compound NOT metabolized | Compound NOT metabolized | Compound metabolized | Compound NOT metabolized | Compound metabolized | Compound NOT metabolized | Compound metabolized | Compound NOT metabolized | Compound NOT metabolized | Compound NOT metabolized | Compound NOT metabolized | Compound metabolized | Compound NOT metabolized | Compound metabolized | Compound metabolized | Compound metabolized | Compound metabolized | Compound metabolized | Compound metabolized | Compound NOT metabolized | Bacterial Biotransformation [21]: Compound NOT metabolized; Bacterial Biotransformation [22]: Compound NOT metabolized; Bacterial Biotransformation [23]: Compound NOT metabolized; Bacterial Biotransformation [24]: Compound metabolized; Bacterial Biotransformation [25]: Compound NOT metabolized |
